pIC50: −log10 of the molar value. “Also recorded” adds a separate entry of the source. Like-named read-outs stand apart in the source and are kept apart here.
Assays:
cleaved caspase 3 [1] = format: cell-based, African green monkey; details: Vero, methanesulfonate
[2] = tested on: SARS-CoV-2 wild type (WT); test: Lung inflammation in K18-hACE2 mice infected with SARS-CoV-2 wild type (cohort A, 3 dpi); format: in vivo
Nrf2, Keap1, HO-1 = test: Nrf2, Keap1 and HO-1 protein levels in Calu3 cells, flow cytometry; format: cell-based, human; details: infected and uninfected Calu3
[3] = tested on: murine coronavirus hepatitis virus A-59 (MHV-A59); test: Mouse hepatitis virus A-59 in 17Cl-1 fibroblast cells; format: cell-based; details: mouse 17C1-1 fibroblast cells, 1000 nM
[4] = cited from earlier work
SARS-CoV-2 [5] = format: cell-based
icSARS-CoV-2-mNG [6] = format: cell-based, SARS-CoV-2
[7] = mice, doses as high as 230 mg/kg/day; cited from earlier work
SARS-CoV-2 [8] = test: SARS-CoV-2 replication in human airway epithelial (HAE) air-liquid interface cultures, flow cytometry; format: cell-based
cleaved caspase 3 [9] = format: cell-based, human; details: methanesulfonate
IL-6 = format: cell-based, African green monkey; details: Mito-MES 10-1000 nM, 4F 10 μM
icSARS-CoV-2-mNG [10] = format: cell-based, SARS-CoV-2; details: methanesulfonate
[11] = tested on: ACE2, CD147, NRP1 and TMPRSS2; test: Host entry factor protein levels in Calu3 cells, flow cytometry; format: cell-based, human; details: methanesulfonate
[12] = tested on: IL-6, IL-1β, IL-8, IL-10, TNF-α; format: cell-based, human
[13] = up to 80 mg orally daily, up to one year; methanesulfonate; cited from earlier work
SARS-CoV-2 [14] = test: microbe, parasite or virus in culture; format: cell-based
MAVS, TOM70, STING, MX1 = test: MAVS, TOM70, STING and MX1 protein levels in Calu3 cells, flow cytometry and immunofluorescence; format: cell-based, human
[15] = cited from earlier work; remark: listed apart in the source

COC1=C(OC)C(=O)C(CCCCCCCCCC[P+](c2ccccc2)(c2ccccc2)c2ccccc2)=C(C)C1=O.CS(=O)(=O)[O-] [Mito-MES, 10-(4,5-dimethoxy-2-methyl-3,6-dioxo-1,4-cyclohexadienyl) decyl triphenylphosphonium methanesulfonate]
SARS-CoV-2-induced cleavage of caspase 3, immunofluorescence (cleaved caspase 3 [1]; Mito-MES 10-1000 nM): reduced SARS-CoV-2-induced increase in cleavage of caspase 3; also recorded: reduced by Mito-MES treatment | percent of infected cells positive for cleaved caspase 3 and MFI of cleaved caspase 3 per cell, flow cytometry (cleaved caspase 3 [1]; Mito-MES 100 nM, 4F 10 μM): attenuated SARS-CoV-2-induced increase; also recorded: inhibits or reduces SARS-CoV-2-induced increase | reduction in IL-6 in the lungs, Luminex ([2]; 4 mg/kg i.p. daily, 3 dpi): at least 2 orders of magnitude | reduction in IL-lb in the lungs, Luminex ([2]; 4 mg/kg i.p. daily, 3 dpi): at least 2 orders of magnitude | frequency of CD45+ immune cells in lungs, flow cytometry ([2]; 3 dpi): reduced frequency of CD45+ immune | frequency of NK cells in lungs ([2]; 3 dpi): reduced frequency of NK cells | levels of TNFa ([2]; WT SARS-CoV-2): did not change | protein levels of IL-18 ([2]; cohort A and cohort B): did not change protein levels of IL-18 | frequency of neutrophils, macrophages, myeloid DCs, lymphoid DCs, T cells, B cells ([2]; lungs, flow cytometry): did not alter frequency | protein levels of Nrf2 (Nrf2, Keap1, HO-1): did not impact protein levels of Nrf2 | protein levels of Keap (Keap1) (Nrf2, Keap1, HO-1; methanesulfonate): reduced protein levels of the endogenous Nrf2 inhibitor, Keap1; also recorded: reduced protein levels of Keap | anti-MHV-A59 activity [3]: anti-MHV-A59 activity | average elevation of fasting plasma concentrations ([4]; 40-80 mg/day, after about 10 days): about 5 ng/mL | plasma concentration after 24 h ([4]; humans, single 40 mg oral dose): about 2 ng/ml | maximal plasma concentration ([4]; humans, single 80 mg oral dose): 33 ng/mL | time of maximal plasma concentration ([4]; humans, single 80 mg oral dose): about 1 h | release of progeny SARS-CoV-2 virus particles to the cell supernatant, TCID50 assay (SARS-CoV-2 [5]): reduction in subsequent release of progeny SARS-CoV-2 virus particles | IC50 against SARS-CoV-2 compared to remdesivir, TCID50 assay (SARS-CoV-2 [5]; Vero E6): three orders of magnitude lower | percent of cells positive for SARS-CoV-2 N and Spike S proteins, flow cytometry (SARS-CoV-2 [5]; Vero cells, methanesulfonate): reduced the percent of cells that were positive for SARS-CoV-2 N and Spike S proteins; also recorded: reduced the percent of infected cells that were positive for N protein | antiviral activity by immunofluorescence and qPCR (SARS-CoV-2 [5]; methanesulfonate): confirmed by immunofluorescence (IF) detection of SARS-CoV-2 and by qPCR; also recorded: modest antiviral activity | antiviral activity against fluorescent SARS-CoV-2 (icSARS-CoV-2-mNG [6]): potent and similar antiviral activity | mutagenicity and toxicity [7]: non-mutagenic and non-toxic | Viral replication by flow cytometry in human airway epithelial cells (SARS-CoV-2 [8]; 1 μM Mito-MES, Control 20.0%, MOI 0.1): 0.4% | percent of SARS-CoV-2 infected human lung epithelial cells, flow cytometry (SARS-CoV-2 [8]; HAE ALI cultures, 100 nM Mito-MES): significantly reduced the percent of SARS-CoV-2 infected human lung epithelial cells | percent of SARS-CoV-2 infected FOXJ1+ ciliated epithelial cells, flow cytometry (SARS-CoV-2 [8]; HAE ALI cultures, methanesulfonate): significantly reduced the percent of human FOXJ1 (forkhead box J1) positive ciliated epithelial cells infected with SARS-CoV-2 | SARS-CoV-2-induced cleavage of caspase 3, immunofluorescence (cleaved caspase 3 [9]; Calu3, Mito-MES 10-1000 nM): reduced SARS-CoV-2-induced increase in cleavage of caspase 3; also recorded: reduced by Mito-MES treatment | percent of infected cells positive for cleaved caspase 3 and MFI of cleaved caspase 3 per cell, flow cytometry (cleaved caspase 3 [9]; Calu3, Mito-MES 100 nM, 4F 10 μM): attenuated SARS-CoV-2-induced increase; also recorded: inhibits or reduces SARS-CoV-2-induced increase | SARS-CoV-2-induced secretion of IL-6 (IL-6): attenuated the increase in secretion of IL-6 | antiviral activity against fluorescent SARS-CoV-2 (icSARS-CoV-2-mNG [10]): potent and similar antiviral activity | protein levels of ACE2, TMPRSS2, NRP1 and CD147 [11]: did not impact; also recorded: Neither SARS-CoV-2 infection nor Mito-MES significantly modulates protein levels | secretion of IL-10, Luminex [12]: tended (p=0.09) to reduce the secretion of IL-10 | safety in humans [13]: safety for up to one year in doses as high as 80 mg orally daily has been validated; also recorded: without any serious adverse events | reduction of release of progeny virus, TCID50 analysis of cell supernatants (SARS-CoV-2 [14]; Calu3, 100 nM and 1000 nM Mito-MES): > 2 logs | nucleocapsid protein expression, time-of-addition (SARS-CoV-2 [14]; Calu3, 1000 nM Mito-MES): inhibited nucleocapsid protein expression in Calu3 cells when added before infection (effect on viral entry) but also even when added 4 hours after infection | antiviral activity by immunofluorescence and PCR (SARS-CoV-2 [14]; Calu3, 10-1000 nM, methanesulfonate): much more potent in Calu3 cells compared to Vero E6 cells; also recorded: potent antiviral activity against SARS-CoV-2 in Calu3 cells at concentrations as low as 10 nM | Viral replication by flow cytometry at 48 hpi in Calu3 cells (SARS-CoV-2 [14]; DMF 10 μM, Mito-MES 100 nM, Mito-MES 100 nM+DMF 10 μM, […]): 2.4% | Viral replication by flow cytometry at 48 hpi in Calu3 cells (SARS-CoV-2 [14]; Mito-MES 1000 nM, Brusatol 250 nM, Mito-MES 1000 nM+Brusatol 250 nM): 2.9% | pIC50 (SARS-CoV-2 [14]; Severe acute respiratory syndrome coronavirus 2, Calu-3, 48 h, read-out: IC50 (FIG. 1-i)): 7.70 | pIC50 (SARS-CoV-2 [14]; Severe acute respiratory syndrome coronavirus 2, Calu-3, 72 h, read-out: IC50, % inhibition of viral replication (FIG. 5-c)): 7.52 | viral titers of infected cells vs vehicle control, TCID50-assay (SARS-CoV-2 [14]; […], 10 nM Mito-MES, 10 μM DMF, 100 nM 4F, alone or combined as labelled): reduced viral titers | lowest concentration that resulted in an observable antiviral effect (SARS-CoV-2 [14]; human lung epithelial cells): 10 nM | MX1 protein levels (MAVS, TOM70, STING, MX1; Calu3, flow cytometry, 4F 10 μM): increased MX1 protein levels | STING protein levels (MAVS, TOM70, STING, MX1; infected Calu3, flow cytometry, methanesulfonate): did not impact stimulator of interferon genes (STING) | TOM70 protein levels, immunofluorescence (MAVS, TOM70, STING, MX1; infected Calu3 vs vehicle, methanesulfonate): confirmed by immunofluorescence; also recorded: dose-dependent increase in TOM70 protein levels | MAVS protein levels (MAVS, TOM70, STING, MX1; total and infected Calu3, flow cytometry, methanesulfonate): no impact; also recorded: did not modulate MAVS protein levels | TOM70 protein levels, flow cytometry (MAVS, TOM70, STING, MX1; total and infected Calu3, methanesulfonate): increased the translocase of the outer membrane 70 (TOM70) protein levels | elimination half-life ([15]; based on post 4 h data): about 14 h | lung tissue penetration ([15]; mice, 4 mg/kg/day): good lung tissue penetration | accumulation in tissues including liver and kidney ([15]; mice, >10 days of oral supplementation): 50 to 700 pmol/g (wet weight) | time of peak plasma concentration ([15]; oral administration): ≤ 1 h

From patent publication US20220273678A1 (priority 2020, published 2022)
